This note sets out measurements from US20250122166A1, “SUBSTITUTED N-((2-(2,6-DIOXOPIPERIDIN-3-YL)-1-OXOISOINDOLIN-4-YL)METHYL)BENZAMIDE ANALOGS AS MODULATORS OF CEREBLON PROTEIN” (ST. JUDE CHILDREN'S RESEARCH HOSPITAL, INC., priority 2021, published 2025).

pEC50, pIC50: −log10 of the molar value.

In general, pIC50 refers to the negative decadic logarithm of the IC50, by convention in mol/L. For orientation: pEC50 means the EC50 on a negative log10 scale, so that one unit is a factor of ten.

Assay [1] has as its target 6XHis-CRBN-DDB1 protein (Homo sapiens (Human), UniProt Q96SW2). The assay can be described thus: CRBN fluorescence polarization assay (competitive, Cy5-O-Len probe). The format is binding. Particulars: 6XHis-CRBN-DDB1 200 nM, Cy5-O-Len probe 30 nM, 1 hour; mean of three determinations; read-out: CRBN FP (IC50). As for the experimental part:
In this competitive fluorescent polarization assay Cy5 conjugated lenalidomide analog (Cy5—O-Len)^1 was used as a fluorescent probe. 6XHis-CRBN-DDB1 protein (200 nM) and Cy5—O-Len probe (30 nM) were combined in 20 mM HEPES pH 7, 150 mM NaCl, 0.005% Tween-20 assay buffer. 20 μL of this assay cocktail was dispensed into wells of Corning 3821 black 384-well plates. Compounds were transferred to the assay plate from a dose-response plate using a Pintool on a Biomek FXP Laboratory Automation Workstation (Beckman Coulter). The plates were incubated in the dark for 1 hour at room temperature and then read on an Envision plate reader (PerkinElmer, Massachusetts, USA). IC50 values were determined using a proprietary software RISE (Robust Investigation of Screening Experiments), developed in house on the Pipeline Pilot platform (Biovia, v. 17.2.0). Data represent the mean of three independent determinations.
(In general: Polarisation of emitted light reports the rotation of a fluorescent probe.)

Assay [2] has as its system MOLM-13 cells. The assay can be described thus: Cell proliferation assay (Cell Titer-Glo, 72 h). The format is cell-based. Conditions: Homo sapiens, 72 h incubation, * = cytostatic 50%. The method, then:
MOLM-13 cell line was purchased from the Leibniz Institute DSMZ (ACC 554). The cells were cultured according to recommendations in RPMI 1640 cell culture media with 20% FBS (DSMZ). Exponentially growing MOLM-13 cells were plated at 1250 cells per well in Corning 8804BC white 384-well assay plates and incubated overnight at 37° C. in a humidified 5% CO2 incubator. Compounds were transferred to the assay plate from a dose-response plate using a Pintool on a Biomek FXP Laboratory Automation Workstation (Beckman Coulter). Cytotoxicity was determined following 72 hours of incubation using Promega Cell Titer Glo reagent according to the manufacturer's recommendation. Luminescence was measured on an Envision plate reader (Perkin-Elmer).
Compounds were screened in human cancer cell lines and each cell line was cultured in the complete medium recommended by the vendor and seeded in Corning 8804BC white 384-well assay plates at density of 1250 cells per well for MOLM-13 cells. After overnight incubation at 37° C. in a humidified 5% CO2 incubator, cells were treated with compounds in dose-response format using a Pintool on a Biomek FXP Laboratory Automation Workstation (Beckman Coulter). After 72h incubation, cell proliferation was assessed using Cell Titer-Glo (CTG) luminescent cell viability assay (Promega) according to the manufacturer's instruction. Luminescence signal was measured using an Envision plate reader (Perkin-Elmer).
(ATP-based viability assays read luminescence as a measure of living cells.)

With `O=C1CCC(N2Cc3c(CNC(=O)c4c(F)ccc(F)c4Cl)cccc3C2=O)C(=O)N1` (stereo not shown) [Compound 33, 2-chloro-N-((2-(2,6-dioxopiperidin-3-yl)-1-oxoisoindolin-4-yl)methyl)-3,6-difluorobenzamide], the pIC50 in assay [1] was greater than 6.00. Further, the pEC50 in assay [2] was less than 5.00.
The corresponding values for `O=C1CCC(N2Cc3c(CNC(=O)c4cccc5[nH]ccc45)cccc3C2=O)C(=O)N1` (stereo not shown) [Compound 39, N-((2-(2,6-dioxopiperidin-3-yl)-1-oxoisoindolin-4-yl)methyl)-1H-indole-4-carboxamide] are greater than 6.00 and less than 5.00.
On to `O=C1CCC(N2Cc3c(CNC(=O)c4ccc(F)cc4)cccc3C2=O)C(=O)N1` (stereo not shown) [Compound 7, N-((2-(2,6-dioxopiperidin-3-yl)-1-oxoisoindolin-4-yl)methyl)-4-fluorobenzamide], for which the pIC50 in assay [1] is 5.00 to 6.00. The pEC50 in assay [2] was greater than 6.00.
On the same counts, the results for `O=C1CCC(N2Cc3c(CNC(=O)c4ccccc4Nc4ccccc4)cccc3C2=O)C(=O)N1` (stereo not shown) [Compound 45, N-((2-(2,6-dioxopiperidin-3-yl)-1-oxoisoindolin-4-yl)methyl)-2-(phenylamino)benzamide] are 5.00 to 6.00 and greater than 6.00.
For the compound `COc1ccccc1C(=O)NCc1cccc2c1CN(C1CCC(=O)NC1=O)C2=O` (stereo not shown) [Compound 29, N-((2-(2,6-dioxopiperidin-3-yl)-1-oxoisoindolin-4-yl)methyl)-2-methoxybenzamide], in assay [1], the pIC50 is 5.00 to 6.00. This compound showed a pEC50 in assay [2] greater than 6.00.
The corresponding values for `O=C(Cc1ccccc1Br)NCc1cccc2c1CN(C1CCC(=O)NC1=O)C2=O` (stereo not shown) [Compound 41, 2-(2-bromophenyl)-N-((2-(2,6-dioxopiperidin-3-yl)-1-oxoisoindolin-4-yl)methyl)acetamide] are 5.00 to 6.00 and less than 5.00.
For the compound `O=C1CCC(N2Cc3c(CNC(=O)c4cccc(C(F)(F)F)c4)cccc3C2=O)C(=O)N1` (stereo not shown) [Compound 12, N-((2-(2,6-dioxopiperidin-3-yl)-1-oxoisoindolin-4-yl)methyl)-3-(trifluoromethyl)benzamide], in assay [1], the pIC50 was 5.00 to 6.00. For the same compound, in assay [2], the pEC50 was greater than 6.00.
`O=C1CCC(N2Cc3c(CNC(=O)c4cccc(C(F)F)c4)cccc3C2=O)C(=O)N1` (stereo not shown) [Compound 23, 3-(difluoromethyl)-N-((2-(2,6-dioxopiperidin-3-yl)-1-oxoisoindolin-4-yl)methyl)benzamide]: the pIC50 in assay [1] is 5.00 to 6.00. In assay [2], this compound showed a pEC50 greater than 6.00.
The corresponding values for `O=C1CCC(N2Cc3c(CNC(=O)c4ccc(C(F)F)cc4)cccc3C2=O)C(=O)N1` (stereo not shown) [Compound 24, 4-(difluoromethyl)-N-((2-(2,6-dioxopiperidin-3-yl)-1-oxoisoindolin-4-yl)methyl)benzamide] are 5.00 to 6.00 and greater than 6.00.
On the same counts, the results for `N#Cc1cccc(C(=O)NCc2cccc3c2CN(C2CCC(=O)NC2=O)C3=O)c1` (stereo not shown) [Compound 26, 3-cyano-N-((2-(2,6-dioxopiperidin-3-yl)-1-oxoisoindolin-4-yl)methyl)benzamide] are greater than 6.00 and greater than 6.00.
`O=C1CCC(N2Cc3c(CNC(=O)c4cccs4)cccc3C2=O)C(=O)N1` (stereo not shown) [Compound 27, N-((2-(2,6-dioxopiperidin-3-yl)-1-oxoisoindolin-4-yl)methyl)thiophene-2-carboxamide]: the pIC50 in assay [1] is greater than 6.00. In assay [2], this compound had a pEC50 of less than 5.00.
With `O=C1CCC(N2Cc3c(CNC(=O)c4cccc(OC(F)(F)F)c4)cccc3C2=O)C(=O)N1` (stereo not shown) [Compound 20, N-((2-(2,6-dioxopiperidin-3-yl)-1-oxoisoindolin-4-yl)methyl)-3-(trifluoromethoxy)benzamide], in assay [1], the pIC50 is 5.00 to 6.00. This compound also had a pEC50 in assay [2] greater than 6.00.
The corresponding values for `O=C1CCC(N2Cc3c(CNC(=O)c4cc(C(F)(F)F)cc(Cl)c4F)cccc3C2=O)C(=O)N1` (stereo not shown) [Compound 35, 3-chloro-N-((2-(2,6-dioxopiperidin-3-yl)-1-oxoisoindolin-4-yl)methyl)-2-fluoro-5-(trifluoromethyl)benzamide] are greater than 6.00 and less than 5.00.
On the same counts, the results for `O=C1CCC(N2Cc3c(CNC(=O)c4ccc(F)c(C(F)(F)F)c4)cccc3C2=O)C(=O)N1` (stereo not shown) [Compound 22, N-((2-(2,6-dioxopiperidin-3-yl)-1-oxoisoindolin-4-yl)methyl)-4-fluoro-3-(trifluoromethyl)benzamide] are greater than 6.00 and greater than 6.00.
For the compound `COc1ccc(C(=O)NCc2cccc3c2CN(C2CCC(=O)NC2=O)C3=O)cc1` (stereo not shown) [Compound 25, N-((2-(2,6-dioxopiperidin-3-yl)-1-oxoisoindolin-4-yl)methyl)-4-methoxybenzamide], in assay [1], the pIC50 is less than 5.00. In assay [2], this compound gave a pEC50 of less than 5.00.
As to `COc1cccc(C(=O)NCc2cccc3c2CN(C2CCC(=O)NC2=O)C3=O)c1` (stereo not shown) [Compound 1, N-((2-(2,6-dioxopiperidin-3-yl)-1-oxoisoindolin-4-yl)methyl)-3-methoxybenzamide], the pIC50 in assay [1] is 5.00 to 6.00. For the same compound, in assay [2], the pEC50 is greater than 6.00.
On the same counts, the results for `O=C1CCC(N2Cc3c(CNC(=O)c4ccc(F)cc4Cl)cccc3C2=O)C(=O)N1` (stereo not shown) [Compound 17, 2-chloro-N-((2-(2,6-dioxopiperidin-3-yl)-1-oxoisoindolin-4-yl)methyl)-4-fluorobenzamide] are 5.00 to 6.00 and greater than 6.00.
For `O=C1CCC(N2Cc3c(CNC(=O)c4ccc(-c5ccc(Cl)cc5)o4)cccc3C2=O)C(=O)N1` (stereo not shown) [Compound 44, 5-(4-chlorophenyl)-N-((2-(2,6-dioxopiperidin-3-yl)-1-oxoisoindolin-4-yl)methyl)furan-2-carboxamide], the pIC50 in assay [1] was greater than 6.00. This compound also had a pEC50 in assay [2] greater than 6.00.
On to `O=C1CCC(N2Cc3c(CNC(=O)c4ccc(Cl)cc4F)cccc3C2=O)C(=O)N1` (stereo not shown) [Compound 36, 4-chloro-N-((2-(2,6-dioxopiperidin-3-yl)-1-oxoisoindolin-4-yl)methyl)-2-fluorobenzamide], for which the pIC50 in assay [1] was greater than 6.00. In assay [2], this compound showed a pEC50 greater than 6.00.
For `O=C1CCC(N2Cc3c(CNC(=O)c4ccccc4Nc4cccc(C(F)(F)F)c4)cccc3C2=O)C(=O)N1` (stereo not shown) [Compound 43, N-((2-(2,6-dioxopiperidin-3-yl)-1-oxoisoindolin-4-yl)methyl)-2-((3-(trifluoromethyl)phenyl)amino)benzamide], in assay [1], the pIC50 was 5.00 to 6.00. The pEC50 in assay [2] was greater than 6.00.
In the case of `O=C1CCC(N2Cc3c(CNC(=O)c4ccc(Cl)cc4)cccc3C2=O)C(=O)N1` (stereo not shown) [Compound 5, 4-chloro-N-((2-(2,6-dioxopiperidin-3-yl)-1-oxoisoindolin-4-yl)methyl)benzamide], the pIC50 in assay [1] is 5.00 to 6.00. The same compound had a pEC50 in assay [2] greater than 6.00.
As to `O=C1CCC(N2Cc3c(CNC(=O)c4cc(F)ccc4F)cccc3C2=O)C(=O)N1` (stereo not shown) [Compound 37, N-((2-(2,6-dioxopiperidin-3-yl)-1-oxoisoindolin-4-yl)methyl)-2,5-difluorobenzamide], the pIC50 in assay [1] was 5.00 to 6.00. For the same compound, the pEC50 in assay [2] is less than 5.00.
For `O=C1CCC(N2Cc3c(CNC(=O)c4ccc(OC(F)(F)F)cc4)cccc3C2=O)C(=O)N1` (stereo not shown) [Compound 34, N-((2-(2,6-dioxopiperidin-3-yl)-1-oxoisoindolin-4-yl)methyl)-4-(trifluoromethoxy)benzamide], in assay [1], the pIC50 was 5.00 to 6.00. The compound also had a pEC50 in assay [2] greater than 6.00.
